Among the data in patent publication US12552825B2 (Zikani Therapeutics, Inc., priority 2019, dated 2026) are MIC values, retold here.

Holding throughout (format): cell-based
In test [1] the test system is K. pneumoniae MP-546. The experiment in a line: MIC determination by CLSI broth dilution, K. pneumoniae MP-546. The following applies: Klebsiella pneumoniae, MP546, CLSI broth dilution; strain MP-546. On the technique in general: Dilution methods test growth across graded concentrations, often in twofold steps.
Test [2] relates to S. aureus MP-12. The experiment in a line: microbe, parasite or virus in culture. To be noted: Staphylococcus aureus, MP12, read-out: MIC S. aureus MP-12.
Test [3] relates to P. aeruginosa MP-3. The experiment in a line: MIC determination by CLSI broth dilution, P. aeruginosa MP-3. The following applies: Pseudomonas aeruginosa, MP3, strain MP-3.
The subject of test [4] is E. coli MP-4. The experiment in a line: MIC determination by CLSI broth dilution, E. coli MP-4. The following applies: Escherichia coli, MP4, CLSI broth dilution; strain MP-4.
The test system of test [5] is A. baumannii MP-15. The experiment in a line: MIC determination by CLSI broth dilution, A. baumannii MP-15. The following applies: Acinetobacter baumannii, MP15, strain MP-15, read-out: MIC A. baumanii MP-15.

Molecules are shown by their SMILES. Values after ≈ are worked out from the molar mass of the structure shown.

As to `C=C[C@@H]1COC(=O)C(C)(C)C(=O)[C@H](C)[C@@H](O[C@@H]2O[C@H](C)C[C@H](N(C)C)[C@H]2O)[C@](C)(OC)C[C@@H](C)CN1C` [Compound 14, (3R,6R,8R,9R,10R)-9-(((2S,3R,4S,6R)-4-(Dimethylamino)-3-hydroxy-6-methyltetrahydro-2H-pyran-2-yl)oxy)-8-methoxy-4,6,8,10,12,12-hexamethyl-3-vinyl-1-oxa-4-azacyclotridecane-11,13-dione], the MIC is 4 to 32 µg/mL (≈ 7.59 to 60.8 µM) in test [1]; > 32 µg/mL in test [2]; > 32 µg/mL in test [3]; 4 to 32 µg/mL (≈ 7.59 to 60.8 µM) in test [4]; > 32 µg/mL in test [5].
`CO[C@]1(C)C[C@@H](C)CN(C)[C@@H](CN(C)C(=O)CN(C)C)COC(=O)C(C)(C)C(=O)[C@H](C)[C@H]1O[C@@H]1O[C@H](C)C[C@H](N(C)C)[C@H]1O` [Compound 13, 2-(dimethylamino)-N-(((3S,6R,8R,9R,10R)-9-(((2S,3R,4S,6R)-4-(dimethylamino)-3-hydroxy-6-methyltetrahydro-2H-pyran-2-yl)oxy)-8-methoxy-4,6,8,10,12,12-hexamethyl-11,13-dioxo-1-oxa-4-azacyclotridecan-3-yl)methyl)-N-methylacetamide]: the MIC in test [1] was 4 to 32 µg/mL (≈ 6.36 to 50.9 µM); in test [2], > 32 µg/mL; in test [3], > 32 µg/mL; in test [4], 4 to 32 µg/mL (≈ 6.36 to 50.9 µM); in test [5] it was > 32 µg/mL.
Consider `CO[C@]1(C)C[C@@H](C)CN(C)[C@@H](CN(C)Cc2nccn2C)COC(=O)C(C)(C)C(=O)[C@H](C)[C@H]1O[C@@H]1O[C@H](C)C[C@H](N(C)C)[C@H]1O` [Compound 104, (3S,6R,8R,9R,10R)-9-(((2S,3R,4S,6R)-4-(Dimethylamino)-3-hydroxy-6-methyltetrahydro-2H-pyran-2-yl)oxy)-8-methoxy-4,6,8,10,12,12-hexamethyl-3-((methyl((1-methyl-11H-imidazol-2-yl)methyl)amino)methyl)-1-oxa-4-azacyclotridecane-11,13-dione], for which the MIC in test [1] is > 32 µg/mL; in test [2], > 32 µg/mL; in test [3], > 32 µg/mL; in test [4] it was 4 to 32 µg/mL (≈ 6.27 to 50.2 µM); in test [5] it was > 32 µg/mL.
Consider `CO[C@]1(C)C[C@@H](C)CN(C)[C@@H](C(=O)N2CCN(C(C)C)CC2)[C@H](C)OC(=O)C(C)(C)C(=O)[C@H](C)[C@H]1O[C@@H]1O[C@H](C)C[C@H](N(C)C)[C@H]1O` [Compound 91, (2S,3R,6R,8R,9R,10R)-9-(((2S,3R,4S,6R)-4-(dimethylamino)-3-hydroxy-6-methyltetrahydro-2H-pyran-2-yl)oxy)-3-(4-isopropylpiperazine-1-carbonyl)-8-methoxy-2,4,6,8,10,12,12-heptamethyl-1-oxa-4-azacyclotridecane-11,13-dione], for which the MIC in test [1], in test [2], in test [3], in test [4] and in test [5] was > 32 µg/mL throughout.
For the molecule `CCCN1CCC(C[C@@H]2COC(=O)C(C)(C)C(=O)[C@H](C)[C@@H](O[C@@H]3O[C@H](C)C[C@H](N(C)C)[C@H]3O)[C@](C)(OC)C[C@@H](C)CN2C)CC1` [Compound 42], the MIC in test [1] is < 4 µg/mL; in test [2], 4 to 32 µg/mL (≈ 6.25 to 50 µM); in test [3], > 32 µg/mL; in test [4], < 4 µg/mL; in test [5] it was > 32 µg/mL.
`CO[C@]1(C)C[C@@H](C)CN(C)[C@@H](CC2CCN(CC(C)(C)C)CC2)C(C)(C)OC(=O)C(C)(C)C(=O)[C@H](C)[C@H]1O[C@@H]1O[C@H](C)C[C@H](N(C)C)[C@H]1O` [Compound 37]: the MIC in test [1] is > 32 µg/mL; in test [2], > 32 µg/mL; in test [3], > 32 µg/mL; in test [4], 4 to 32 µg/mL (≈ 5.75 to 46 µM); in test [5] it was > 32 µg/mL.
Take `CO[C@]1(C)C[C@@H](C)CN(C)[C@@H](CC2CCN(C(C)C)CC2)COC(=O)C(C)(C)C(=O)[C@H](C)[C@H]1O[C@@H]1O[C@H](C)C[C@H](N(C)C)[C@H]1O` [Compound 68]: the MIC was 4 to 32 µg/mL (≈ 6.25 to 50 µM) in test [1]; > 32 µg/mL in test [2]; > 32 µg/mL in test [3]; 4 to 32 µg/mL (≈ 6.25 to 50 µM) in test [4]; > 32 µg/mL in test [5].
Turning to `CCCN1CCC(C[C@@H]2N(C)C[C@H](C)C[C@@](C)(OC)[C@H](O[C@@H]3O[C@H](C)C[C@H](N(C)C)[C@H]3O)[C@@H](C)C(=O)C(C)(C)C(=O)OC2(C)C)CC1` [Compound 48], the MIC in test [1] is 4 to 32 µg/mL (≈ 5.99 to 47.9 µM); in test [2] it was > 32 µg/mL; in test [3], > 32 µg/mL; in test [4] it was < 4 µg/mL; in test [5] it was > 32 µg/mL.
`CCCN1CCC(C[C@@H]2[C@@H](C)OC(=O)C(C)(C)C(=O)[C@H](C)[C@@H](O[C@@H]3O[C@H](C)C[C@H](N(C)C)[C@H]3O)[C@](C)(OC)C[C@@H](C)CN2C)CC1` [Compound 38]: the MIC in test [1] was < 4 µg/mL; in test [2] it was > 32 µg/mL; in test [3], > 32 µg/mL; in test [4], < 4 µg/mL; in test [5], > 32 µg/mL.
With `CO[C@]1(C)C[C@@H](C)CN(C)[C@H](CC2CCN(C)CC2)[C@@H](C)OC(=O)C(C)(C)C(=O)[C@H](C)[C@H]1O[C@@H]1O[C@H](C)C[C@H](N(C)C)[C@H]1O` [Compound 49], the MIC in test [1] was 4 to 32 µg/mL (≈ 6.39 to 51.1 µM); in test [2] it was > 32 µg/mL; in test [3], > 32 µg/mL; in test [4] it was < 4 µg/mL; in test [5], > 32 µg/mL.
Turning to `CO[C@]1(C)C[C@@H](C)CN(C)[C@@H](C(=O)N2CCNCC2)[C@H](C)OC(=O)C(C)(C)C(=O)[C@H](C)[C@H]1O[C@@H]1O[C@H](C)C[C@H](N(C)C)[C@H]1O` [Compound 136, (2S,3R,6R,8R,9R,10R)-9-(((2S,3R,4S,6R)-4-(dimethylamino)-3-hydroxy-6-methyltetrahydro-2H-pyran-2-yl)oxy)-8-methoxy-2,4,6,8,10,12,12-heptamethyl-3-(piperazine-1-carbonyl)-1-oxa-4-azacyclotridecane-11,13-dione], the MIC in test [1], in test [2], in test [3], in test [4] and in test [5] was > 32 µg/mL in each case.
For `CO[C@]1(C)C[C@@H](C)CN(C)[C@@H](CN2CCN(S(=O)(=O)c3cn(C)cn3)CC2)[C@H](C)OC(=O)C(C)(C)C(=O)[C@H](C)[C@H]1O[C@@H]1O[C@H](C)C[C@H](N(C)C)[C@H]1O` [Compound 81, (2S,3S,6R,8R,9R,10R)-9-(((2S,3R,4S,6R)-4-(dimethylamino)-3-hydroxy-6-methyltetrahydro-2H-pyran-2-yl)oxy)-8-methoxy-2,4,6,8,10,12,12-heptamethyl-3-((4-((1-methyl-1H-imidazol-4-yl)sulfonyl)piperazin-1-yl)methyl)-1-oxa-4-azacyclotridecane-11,13-dione], the MIC was > 32 µg/mL in test [1]; 4 to 32 µg/mL (≈ 5.28 to 42.3 µM) in test [2]; > 32 µg/mL in test [3]; > 32 µg/mL in test [4]; > 32 µg/mL in test [5].
Turning to `CO[C@]1(C)C[C@@H](C)CN(C)[C@H](CC2CCN(CC(C)(C)C)CC2)C(C)(C)OC(=O)C(C)(C)C(=O)[C@H](C)[C@H]1O[C@@H]1O[C@H](C)C[C@H](N(C)C)[C@H]1O` [Compound 36], the MIC in test [1] is 4 to 32 µg/mL (≈ 5.75 to 46 µM); in test [2], 4 to 32 µg/mL (≈ 5.75 to 46 µM); in test [3], > 32 µg/mL; in test [4], < 4 µg/mL; in test [5] it was 4 to 32 µg/mL (≈ 5.75 to 46 µM).
In the case of `CCC(=O)N1CCN(C[C@H]2[C@H](C)OC(=O)C(C)(C)C(=O)[C@H](C)[C@@H](O[C@@H]3O[C@H](C)C[C@H](N(C)C)[C@H]3O)[C@](C)(OC)C[C@@H](C)CN2C)CC1` [Compound 133, (2S,3S,6R,8R,9R,10R)-9-(((2S,3R,4S,6R)-4-(dimethylamino)-3-hydroxy-6-methyltetrahydro-2H-pyran-2-yl)oxy)-8-methoxy-2,4,6,8,10,12,12-heptamethyl-3-((4-propionylpiperazin-1-yl)methyl)-1-oxa-4-azacyclotridecane-11,13-dione], the MIC in test [1] was > 32 µg/mL; in test [2], 4 to 32 µg/mL (≈ 5.98 to 47.8 µM); in test [3], > 32 µg/mL; in test [4], > 32 µg/mL; in test [5], > 32 µg/mL.
Consider `CO[C@]1(C)C[C@@H](C)CN(C)[C@@H](CC2CCN(CC(C)C)CC2)COC(=O)C(C)(C)C(=O)[C@H](C)[C@H]1O[C@@H]1O[C@H](C)C[C@H](N(C)C)[C@H]1O` [Compound 67], for which the MIC is 4 to 32 µg/mL (≈ 6.12 to 48.9 µM) in test [1]; > 32 µg/mL in test [2]; > 32 µg/mL in test [3]; 4 to 32 µg/mL (≈ 6.12 to 48.9 µM) in test [4]; > 32 µg/mL in test [5].
`CO[C@]1(C)C[C@@H](C)CN(C)[C@@H](CCCN2CCCCC2)COC(=O)C(C)(C)C(=O)[C@H](C)[C@H]1O[C@@H]1O[C@H](C)C[C@H](N(C)C)[C@H]1O` [Compound 83, (3S,6R,8R,9R,10R)-9-(((2S,3R,4S,6R)-4-(dimethylamino)-3-hydroxy-6-methyltetrahydro-2H-pyran-2-yl)oxy)-8-methoxy-4,6,8,10,12,12-hexamethyl-3-(3-(piperidin-1-yl)propyl)-1-oxa-4-azacyclotridecane-11,13-dione]: the MIC in test [1] was < 4 µg/mL; in test [2] it was 4 to 32 µg/mL (≈ 6.39 to 51.1 µM); in test [3], > 32 µg/mL; in test [4], < 4 µg/mL; in test [5], > 32 µg/mL.
Turning to `CO[C@]1(C)C[C@@H](C)CN(C)[C@H](CC2CCN(CC(C)(C)C)CC2)[C@@H](C)OC(=O)C(C)(C)C(=O)[C@H](C)[C@H]1O[C@@H]1O[C@H](C)C[C@H](N(C)C)[C@H]1O` [Compound 39], the MIC is 4 to 32 µg/mL (≈ 5.87 to 46.9 µM) in test [1]; > 32 µg/mL in test [2]; > 32 µg/mL in test [3]; < 4 µg/mL in test [4]; > 32 µg/mL in test [5].
